From US11597724B2, “Herbicidally active 3-phenylisoxazoline-5-carboxamides of tetrahydro and dihydrofuran carboxylic acids and esters” (Bayer Aktiengesellschaft, priority 2017, dated 2023) come the findings set out here.

Holding throughout (type): in vivo
One assay deals with Abutilon theophrasti. In words: Pre-emergence herbicidal activity against ABUTH. The following applies: dosage 80 g/ha. The text has this:
(§1) 1. Pre-Emergence Herbicidal Action and Crop Plant Compatibility Seeds of monocotyledonous and dicotyledonous weed plants and crop plants are placed in plastic or wood fiber pots and covered with soil. The compounds of the invention, formulated in the form of wettable powders (WP) or as emulsion concentrates (EC), are then applied onto the surface of the covering soil as aqueous suspension or emulsion with addition of 0.5% additive at a water application rate of 600 l/ha (converted). After the treatment, the pots are placed in a greenhouse and kept under good growth conditions for the trial plants. After about 3 weeks, the effect of the preparations is scored visually in comparison with untreated controls as percentages. For example, 100% activity=the plants have died, 0% activity=like control plants. ABUTH: Abutilon theophrasti ALOMY: Alopecurus myosuroides

The nature of assay [1]: Pre-emergence treatment, summary over harmful plants. The following applies: 504 h, application rate of 0.08 kg of active substance or less per hectare, read-out: herbicidal action, pre-emergence treatment (very good activity).
Excerpt: 1. Pre-Emergence Herbicidal Action and Crop Plant Compatibility
as §1, with “Seeds” for “1. Pre-Emergence Herbicidal Action and Crop Plant Compatibility Seeds”, “plants.” for “plants. ABUTH: Abutilon theophrasti ALOMY: Alopecurus myosuroides”
As shown by the results, compounds according to the invention such as, for example, the compounds No. I-21 and other compounds from the tables (for example I-10, I-26, I-09, I-30, I-28, I-29, I-27, I-01, I-06, I-34, I-19, I-11, I-36, I-37, I-38, I-41, I-42, I-43, I-44, I-46, I-49) have, when used for pre-emergence treatment, very good activity (80% to 100% herbicidal action) against harmful plants such as Abutilon theophrasti, Alopecurus myosuroides, Amaranthus retroflexus, Avena fatua, Echinochloa crus-galli, Hordeum murinum, Lolium rigidum, Pharbitis purpurea, Polygonum convolvulus, Setaria viridis, Stellaria media, Veronica persica and Viola tricolor at an application rate of 0.08 kg of active substance or less per hectare.

In the next assay the test system is Hordeum murinum. In words: Pre-emergence herbicidal activity against HORMU. The following applies: dosage 80 g/ha; for pest or weed control at 80 g/ha: Hordeum murinum, 504 h.
Excerpt: as §1, with “ECHCG: Echinochloa crus-galli HORMU: Hordeum murinum” for “ABUTH: Abutilon theophrasti ALOMY: Alopecurus myosuroides”

Another assay has as its system Viola tricolor. In words: Pre-emergence herbicidal activity against VIOTR. The following applies: dosage 80 g/ha.
Excerpt: as §1, with “VIOTR: Viola tricolor” for “ABUTH: Abutilon theophrasti ALOMY: Alopecurus myosuroides”

The next assay concerns Pharbitis purpurea. Put plainly: Pre-emergence herbicidal activity against PHBPU. The following applies: dosage 80 g/ha; for pest or weed control at 80 g/ha: Ipomoea purpurea, 504 h.
Excerpt: as §1, with “LOLRI: Lolium rigidum PHBPU: Pharbitis purpurea” for “ABUTH: Abutilon theophrasti ALOMY: Alopecurus myosuroides”

The test system of the next assay is Lolium rigidum. Put plainly: Pre-emergence herbicidal activity against LOLRI. The following applies: dosage 80 g/ha; for pest or weed control at 80 g/ha: Lolium rigidum, 504 h.
Excerpt: as §1, with “LOLRI: Lolium rigidum PHBPU: Pharbitis purpurea” for “ABUTH: Abutilon theophrasti ALOMY: Alopecurus myosuroides”

Consider `COC(=O)[C@H]1C[C@@H](NC(=O)C2(OC)CC(c3cc(C)cc(Br)c3)=NO2)CO1` (relative stereo) [I-08, methyl cis-4-[[3-(3-bromo-5-methylphenyl)-5-methoxy-4H-isoxazole-5-carbonyl]amino]tetrahydrofuran-2-carboxylate], for which the “Pre-emergence herbicidal activity against ABUTH in %” value with Abutilon theophrasti is on record as 100%.
Consider `COC(=O)[C@H]1C[C@@H](NC(=O)[C@@]2(C)CC(c3cc(F)cc(F)c3)=NO2)CO1` (mixture of isomers) [I-09, methyl cis-4-[[(5R)-3-(3,5-difluorophenyl)-5-methyl-4H-isoxazole-5-carbonyl]amino]tetrahydrofuran-2-carboxylate], for which the pest or weed control at 80 g/ha in assay [1] was 80 to 100%. The “Pre-emergence herbicidal activity against ABUTH in %” value in the assay with Abutilon theophrasti was 100%.
For the molecule `C=C[C@]1(C(=O)N[C@H]2CO[C@@H](C(=O)OC)C2)CC(c2cc(F)cc(F)c2)=NO1` (single isomer, unassigned) [I-11], the “Pre-emergence herbicidal activity against HORMU in %” value in the assay on Hordeum murinum was 100%. Besides, in the assay on Viola tricolor, the “Pre-emergence herbicidal activity against VIOTR in %” value is 100%. In addition, the pest or weed control at 80 g/ha in the assay on Pharbitis purpurea is 100%; in assay [1], 80 to 100%. Moreover, the “Pre-emergence herbicidal activity against LOLRI in %” value in the assay with Lolium rigidum is given as 100%. Moreover, in the assay on Abutilon theophrasti, the “Pre-emergence herbicidal activity against ABUTH in %” value is given as 80%.
For the molecule `COC(=O)C1CC(NC(=O)C2(C)CC(c3cc(F)cc(F)c3)=NO2)CO1` (mixture of isomers) [I-48], the “Pre-emergence herbicidal activity against HORMU in %” value with Hordeum murinum is given as 100%. In the assay with Viola tricolor, the “Pre-emergence herbicidal activity against VIOTR in %” value is reported as 100%. Besides, the “Pre-emergence herbicidal activity against PHBPU in %” value in the assay on Pharbitis purpurea is listed as 90%. The “Pre-emergence herbicidal activity against LOLRI in %” value with Lolium rigidum is on record as 100%.
In the case of `CC(C)(C)OC(=O)C1CC(NC(=O)C2(C)CC(c3cc(F)cc(F)c3)=NO2)CO1` (mixture of isomers) [I-42], the “Pre-emergence herbicidal activity against HORMU in %” value in the assay with Hordeum murinum came out at 100%. For the same molecule, the “Pre-emergence herbicidal activity against VIOTR in %” value in the assay on Viola tricolor came to 100%. The “Pre-emergence herbicidal activity against PHBPU in %” value in the assay with Pharbitis purpurea came out at 90%. Moreover, the “Pre-emergence herbicidal activity against LOLRI in %” value in the assay on Lolium rigidum turned out to be 100%.
Take `COC(=O)[C@H]1C[C@@H](NC(=O)C2(C(F)(F)F)CC(c3cc(F)cc(F)c3)=NO2)CO1` (relative stereo) [I-06, methyl cis-4-[[3-(3,5-difluorophenyl)-5-(trifluoromethyl)-4H-isoxazole-5-carbonyl]amino]tetrahydrofuran-2-carboxylate]: the “Pre-emergence herbicidal activity against VIOTR in %” value with Viola tricolor was 80%. The pest or weed control at 80 g/ha was 80% in the assay with Pharbitis purpurea and 80 to 100% in assay [1]. Besides, the “Pre-emergence herbicidal activity against ABUTH in %” value in the assay with Abutilon theophrasti is 100%.
Turning to `COC(=O)[C@H]1C[C@@H](NC(=O)C2(C)CC(c3cc(C)cc(Br)c3)=NO2)CO1` (relative stereo) [I-04, methyl cis-4-[[3-(3-bromo-5-methylphenyl)-5-methyl-4H-isoxazole-5-carbonyl]amino]tetrahydrofuran-2-carboxylate], the “Pre-emergence herbicidal activity against ABUTH in %” value in the assay on Abutilon theophrasti is 100%.
`C=C[C@]1(C(=O)N[C@H]2CO[C@@H](C(=O)OC)C2)CC(c2cc(F)cc(F)c2)=NO1` (mixture of isomers) [I-10, methyl cis-4-[[(5S)-3-(3,5-difluorophenyl)-5-vinyl-4H-isoxazole-5-carbonyl]amino]tetrahydrofuran-2-carboxylate]: the pest or weed control at 80 g/ha with Hordeum murinum was 100%; with Pharbitis purpurea it was 80%; in the assay on Lolium rigidum it was 100%; in assay [1], 80 to 100%. Besides, the “Pre-emergence herbicidal activity against VIOTR in %” value in the assay with Viola tricolor was 100%. In the assay with Abutilon theophrasti, the “Pre-emergence herbicidal activity against ABUTH in %” value was 100%.
In the case of `CC(C)OC(=O)C1CC(NC(=O)C2(C)CC(c3cc(F)cc(F)c3)=NO2)CO1` (centres unmarked) [I-44], in the assay on Hordeum murinum, the “Pre-emergence herbicidal activity against HORMU in %” value stood at 100%. Moreover, in the assay with Viola tricolor, the “Pre-emergence herbicidal activity against VIOTR in %” value came to 80%. The “Pre-emergence herbicidal activity against PHBPU in %” value in the assay on Pharbitis purpurea came out at 80%. The “Pre-emergence herbicidal activity against LOLRI in %” value with Lolium rigidum is given as 100%.
On to `C=C[C@]1(C(=O)N[C@H]2CO[C@@H](C(=O)OC(C)C)C2)CC(c2cc(F)cc(F)c2)=NO1` (mixture of isomers) [I-36, isopropyl cis-4-[[(5S)-3-(3,5-difluorophenyl)-5-vinyl-4H-isoxazole-5-carbonyl]amino]tetrahydrofuran-2-carboxylate], for which the pest or weed control at 80 g/ha in the assay with Hordeum murinum is 90%; in the assay on Pharbitis purpurea, 90%; with Lolium rigidum it was 100%; in assay [1], 80 to 100%. Also, in the assay on Viola tricolor, the “Pre-emergence herbicidal activity against VIOTR in %” value is listed as 100%.
`COC(=O)C1CC(NC(=O)C2(C(C)(F)F)CC(c3cc(F)cc(F)c3)=NO2)CO1` (centres unmarked) [I-49]: the “Pre-emergence herbicidal activity against HORMU in %” value in the assay with Hordeum murinum was found to be 100%. Also, the “Pre-emergence herbicidal activity against VIOTR in %” value in the assay with Viola tricolor was found to be 100%. Further, the “Pre-emergence herbicidal activity against PHBPU in %” value in the assay on Pharbitis purpurea came out at 90%. For the same molecule, the “Pre-emergence herbicidal activity against LOLRI in %” value in the assay on Lolium rigidum amounted to 100%.
As to `COC(=O)[C@H]1C[C@@H](NC(=O)C2(OC)CC(c3ccccc3)=NO2)CO1` (relative stereo) [I-14, methyl cis-4-[(5-methoxy-3-phenyl-4H-isoxazole-5-carbonyl)amino]tetrahydrofuran-2-carboxylate], in the assay with Abutilon theophrasti, the “Pre-emergence herbicidal activity against ABUTH in %” value came to 100%.
Take `C=C[C@]1(C(=O)N[C@H]2CO[C@@H](C(=O)OCc3ccccc3)C2)CC(c2cc(F)cc(F)c2)=NO1` (mixture of isomers) [I-37, benzyl cis-4-[[(5S)-3-(3,5-difluorophenyl)-5-vinyl-4H-isoxazole-5-carbonyl]amino]tetrahydrofuran-2-carboxylate]: the pest or weed control at 80 g/ha in the assay with Hordeum murinum is 100%; in the assay on Pharbitis purpurea, 90%; in the assay with Lolium rigidum, 100%; in assay [1] it was 80 to 100%. In addition, the “Pre-emergence herbicidal activity against VIOTR in %” value in the assay on Viola tricolor came to 100%.
